The target in assay [1] is T1, CaM (Bos taurus, UniProt P62157).
T1 construct: made in house; host or cells: E. coli BL21 (DE3)
Briefly: Pull-down assay with immobilized protein and LSM libraries. The settings on record: H14 library; 1:2 stoichiometry assumed; read-out: Surface mapping KD (apparent). In kind it is binding, bovine. The essentials:
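CaM buffer was 20 mM HEPES pH 7.4, 150 mM NaCl, 5 mM CaCl2. LSM sublibrary members ([…]) incubated 30 min, RT, with equimolar His-tagged protein on Co-NTA resin. HPLC-MS measured unbound probes; bound fraction relative to resin-only background gave dissociation constants.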

Assay [2] concerns the target T2, Gal-1 (Homo sapiens, UniProt P09382).
T2 construct: made in house; host or cells: E. coli BL21(DE3)
Described as above. Conditions: H14 library; 1:1 binding assumed; read-out: Surface mapping KD (apparent). Format: binding. The essentials:
(§1)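 Buffers were HEPES pH 7.4 with 150 mM NaCl, plus 1 mM TCEP and 1 mM CaCl2 (50 mM HEPES) for S100A4 and S100B, 1 mM TCEP for Gal-1, and no additive for RecQ-WH. Immobilized protein at 64 µM was equilibrated 30 min with the LSM sublibrary, and unbound probes were measured by LC-MS.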

The next assay concerns the target T3, S100A4 (Homo sapiens, UniProt P26447).
T3 construct: made in house; host or cells: Escherichia coli BL21(DE3)
The description is as above. In kind it is binding. The settings on record: for pKd: H14 library, 1:1 binding assumed, read-out: Surface mapping KD (apparent). In short, it runs like this: as §1

The target of assay [3] is T4, S100B (Homo sapiens, UniProt P04271).
T4 construct: made in house; host or cells: Escherichia coli BL21(DE3)
T4 sequence (P04271 1-92): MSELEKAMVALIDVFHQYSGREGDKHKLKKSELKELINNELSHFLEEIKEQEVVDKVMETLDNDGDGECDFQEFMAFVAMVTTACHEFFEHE
Described as above. Format: binding. The settings on record: for pKd: H14 library, 1:1 binding assumed, read-out: Surface mapping KD (apparent). The essentials: as §1

A further assay addresses T5, RecQ-WH (Escherichia coli, UniProt P15043).
T5 construct: coding for residues 408– 523 of E. coli RecQ; made in house; host or cells: E. coli BL21(DE3)
The description is as above. Also noted: species or system E. coli. Conditions: H14 library; 1:1 binding assumed; read-out: Surface mapping KD (apparent). The essentials:
as §1

Assay [4] concerns the target T4, S100B. The assay is described as follows: Competition pull-down with native ligand RSK1 (689–735). Format: binding. The settings on record: H14 library; competitor peptide 200 µM; read-out: Surface mapping KD (apparent), competition.
For assay [5], the target named is T2, Gal-1. The assay is described as follows: Competition pull-down with lactose. Conditions: H14 library; lactose 10 mM; read-out: Surface mapping KD (apparent), competition. In kind it is binding. The essentials: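 His6-tagged proteins immobilized on Co-NTA resin at 64 µM final with 64-member LSM foldamer sublibraries (1 M each, as printed) in pH 7.4 HEPES/NaCl buffers (Ca2+/TCEP per target), 30 min RT; competitor peptides 200 µM final, lactose 10 mM for Gal-1. Bound fractions from LC-MS loss vs protein-free resin; KD assuming 1:1 binding.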

The target in assay [6] is T1, CaM. Briefly: Competition pull-down with native ligand TRPV1-Ct15. In kind it is binding, bovine. The settings on record: H14 library; competitor peptide 200 µM; read-out: Surface mapping KD (apparent), competition.
Where [7] appears, read: H14 probes selected for validation.

pKd: −log10 of the molar value.

T3 sequence (P26447 whole entry): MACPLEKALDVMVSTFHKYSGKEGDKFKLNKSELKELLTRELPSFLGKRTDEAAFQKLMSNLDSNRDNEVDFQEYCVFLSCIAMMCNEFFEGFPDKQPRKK
T5 sequence (P15043 408-523): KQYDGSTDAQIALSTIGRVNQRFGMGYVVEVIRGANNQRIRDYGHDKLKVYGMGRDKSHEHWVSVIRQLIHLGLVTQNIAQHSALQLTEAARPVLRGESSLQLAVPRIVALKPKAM
T2 sequence (P09382 whole entry): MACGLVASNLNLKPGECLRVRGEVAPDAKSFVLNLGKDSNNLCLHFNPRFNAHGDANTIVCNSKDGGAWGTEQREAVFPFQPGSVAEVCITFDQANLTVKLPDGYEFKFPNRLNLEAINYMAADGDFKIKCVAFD

For `CC(C)[C@@H](CC(=O)N[C@H]1CCCC[C@@H]1C(=O)N[C@H]1CCCC[C@@H]1C(=O)N[C@H](CC(=O)N[C@H]1CCCC[C@@H]1C(N)=O)Cc1ccc(O)cc1)NC(=O)[C@H]1CCCC[C@@H]1N` [H14 VY], the negative-log Kd (pKd) on CaM [1] was 4.52; on Gal-1 [2], 3.50; on S100A4, 4.30; on S100B [3] it was 3.96; at RecQ-WH, 3.94; on S100B [4], 3.78.

Take `CSCC[C@@H](CC(=O)N[C@H]1CCCC[C@@H]1C(=O)N[C@H]1CCCC[C@@H]1C(=O)N[C@H](CC(=O)N[C@H]1CCCC[C@@H]1C(N)=O)C(C)C)NC(=O)[C@H]1CCCC[C@@H]1N` [H14 MV]: the pKd is 5.52 on CaM [1]; 3.75 at Gal-1 [2]; 4.68 at S100A4; 3.93 on S100B [3]; 3.53 at RecQ-WH; 3.44 on S100B [4]. Besides, the pKd at Gal-1 [5] is 3.66.

Take `CC(C)C[C@@H](CC(=O)N[C@H]1CCCC[C@@H]1C(=O)N[C@H]1CCCC[C@@H]1C(=O)N[C@H](CC(=O)N[C@H]1CCCC[C@@H]1C(N)=O)Cc1ccc(O)cc1)NC(=O)[C@H]1CCCC[C@@H]1N` [H14 LY]: the pKd on CaM [1] is 5.00; at Gal-1 [2] it was 3.64; on S100A4, 4.59; at S100B [3], 4.07; at RecQ-WH it was 3.62; on CaM [6] it was 3.34. Besides, the negative-log Kd (pKd) at S100B [4] is 3.81.

In the case of `NCCCC[C@@H](CC(=O)N[C@H]1CCCC[C@@H]1C(N)=O)NC(=O)[C@H]1CCCC[C@@H]1NC(=O)[C@H]1CCCC[C@@H]1NC(=O)C[C@H](Cc1ccccc1)NC(=O)[C@H]1CCCC[C@@H]1N` [H14 FK], the pKd on CaM [1] was 5.40; on Gal-1 [2], 3.81; on S100A4 it was 3.85; at S100B [3], 4.20; on RecQ-WH it was 3.37; at S100B [4], 3.41. Moreover, the pKd at Gal-1 [5] was 3.82.

In the case of `C[C@@H](O)[C@@H](CC(=O)N[C@H]1CCCC[C@@H]1C(N)=O)NC(=O)[C@H]1CCCC[C@@H]1NC(=O)[C@H]1CCCC[C@@H]1NC(=O)C[C@H](Cc1c[nH]c2ccccc12)NC(=O)[C@H]1CCCC[C@@H]1N` [H14 WT], the pKd at CaM [1] is 5.22; on S100A4 it was 3.80; at S100B [3], 3.97; on RecQ-WH it was 3.78; on CaM [6] it was 3.87; on S100B [4], 3.62.

Turning to `NC(=O)[C@H]1CCCC[C@@H]1NC(=O)C[C@H](CO)NC(=O)[C@H]1CCCC[C@@H]1NC(=O)[C@H]1CCCC[C@@H]1NC(=O)C[C@H](Cc1ccccc1)NC(=O)[C@H]1CCCC[C@@H]1N` [H14 FS], the negative-log Kd (pKd) on CaM [1] is 4.82; on S100A4 it was 3.95; on S100B [3], 3.44; on RecQ-WH, 3.52; on S100B [4] it was 3.37.

As for `C[C@@H](CC(=O)N[C@H]1CCCC[C@@H]1C(N)=O)NC(=O)[C@H]1CCCC[C@@H]1NC(=O)[C@H]1CCCC[C@@H]1NC(=O)C[C@H](Cc1ccc(O)cc1)NC(=O)[C@H]1CCCC[C@@H]1N` [H14 YA], the pKd on CaM [1] was 4.82; at Gal-1 [2] it was 3.47; at S100A4, 3.66; at RecQ-WH, 3.48; on CaM [6] it was 3.44; on S100B [4] it was 3.36.

As for `NC(=O)[C@H]1CCCC[C@@H]1NC(=O)C[C@H](Cc1ccccc1)NC(=O)[C@H]1CCCC[C@@H]1NC(=O)[C@H]1CCCC[C@@H]1NC(=O)C[C@H](CCC(=O)O)NC(=O)[C@H]1CCCC[C@@H]1N` [H14 EF], the pKd was 3.32 on S100B [3], 3.62 on RecQ-WH, 3.90 at S100B [4] and 3.37 on Gal-1 [5].

Regarding `NC(=O)[C@H]1CCCC[C@@H]1NC(=O)C[C@H](Cc1ccccc1)NC(=O)[C@H]1CCCC[C@@H]1NC(=O)[C@H]1CCCC[C@@H]1NC(=O)C[C@H](CC(=O)O)NC(=O)[C@H]1CCCC[C@@H]1N` [H14 DF], the negative-log Kd (pKd) is 3.47 on S100B [3]; 3.54 at RecQ-WH; 3.66 on CaM [6]; 3.89 at S100B [4]; 3.41 on Gal-1 [5].

`C[C@@H](O)[C@@H](CC(=O)N[C@H]1CCCC[C@@H]1C(=O)N[C@H]1CCCC[C@@H]1C(=O)N[C@H](CC(=O)N[C@H]1CCCC[C@@H]1C(N)=O)Cc1c[nH]c2ccccc12)NC(=O)[C@H]1CCCC[C@@H]1N` [H14 TW]: the pKd on CaM [1] is 4.80; at Gal-1 [2], 3.84; on S100A4, 3.72; on S100B [3], 4.33; at RecQ-WH it was 3.54; at S100B [4], 3.59. In addition, the pKd at Gal-1 [5] is 3.83. For the same compound, the “Binding” value on S100A4 (H14 probes) was “does not”; at S100B [3] (H14 probes) it was “binds”. The entries for the “Affinity class of probe (high, medium, low) in pull-down” value on S100A4 (setting [7]) and on S100B [3] (setting [7]) were “low” and “medium”, respectively.

For `C[C@@H](O)[C@@H](CC(=O)N[C@H]1CCCC[C@@H]1C(N)=O)NC(=O)[C@H]1CCCC[C@@H]1NC(=O)[C@H]1CCCC[C@@H]1NC(=O)C[C@H](Cc1ccccc1)NC(=O)[C@H]1CCCC[C@@H]1N` [H14 FT], the pKd was 4.96 at CaM [1]; 3.46 at Gal-1 [2]; 3.87 at S100A4; 3.56 on S100B [3]; 3.66 on RecQ-WH; 3.48 at S100B [4].

For the compound `CSCC[C@@H](CC(=O)N[C@H]1CCCC[C@@H]1C(N)=O)NC(=O)[C@H]1CCCC[C@@H]1NC(=O)[C@H]1CCCC[C@@H]1NC(=O)C[C@H](CCSC)NC(=O)[C@H]1CCCC[C@@H]1N` [H14 MM], the pKd on CaM [1] was 4.80; at Gal-1 [2] it was 3.74; at S100A4, 4.85; at S100B [3] it was 3.76; on RecQ-WH, 3.34; at CaM [6], 3.35. Besides, the pKd on S100B [4] was 3.56.

On to `CC(C)C[C@@H](CC(=O)N[C@H]1CCCC[C@@H]1C(N)=O)NC(=O)[C@H]1CCCC[C@@H]1NC(=O)[C@H]1CCCC[C@@H]1NC(=O)C[C@H](C)NC(=O)[C@H]1CCCC[C@@H]1N` [H14 AL], for which the pKd on CaM [1] is 4.89; on Gal-1 [2], 3.90; at S100A4 it was 5.15; at S100B [3], 3.97; at RecQ-WH it was 3.40; on S100B [4], 3.50. Besides, the pKd at Gal-1 [5] was 3.57.

As for `C[C@@H](CC(=O)N[C@H]1CCCC[C@@H]1C(N)=O)NC(=O)[C@H]1CCCC[C@@H]1NC(=O)[C@H]1CCCC[C@@H]1NC(=O)C[C@H](Cc1c[nH]c2ccccc12)NC(=O)[C@H]1CCCC[C@@H]1N` [H14 WA], the pKd at CaM [1] was 5.52; on S100A4, 4.26; at S100B [3], 4.24; on RecQ-WH, 3.53; at CaM [6], 3.51; on S100B [4], 3.66.

Turning to `CC[C@H](C)[C@@H](CC(=O)N[C@H]1CCCC[C@@H]1C(=O)N[C@H]1CCCC[C@@H]1C(=O)N[C@H](CC(=O)N[C@H]1CCCC[C@@H]1C(N)=O)Cc1ccc(O)cc1)NC(=O)[C@H]1CCCC[C@@H]1N` [H14 IY], the pKd is 4.82 on CaM [1]; 3.59 at Gal-1 [2]; 4.70 on S100A4; 4.13 on S100B [3]; 3.52 on RecQ-WH; 3.81 at S100B [4].

Turning to `CSCC[C@@H](CC(=O)N[C@H]1CCCC[C@@H]1C(N)=O)NC(=O)[C@H]1CCCC[C@@H]1NC(=O)[C@H]1CCCC[C@@H]1NC(=O)C[C@H](CCCCN)NC(=O)[C@H]1CCCC[C@@H]1N` [H14 KM], the pKd on CaM [1] is 4.20; at S100A4, 4.02; at S100B [3], 3.92; at RecQ-WH, 3.34; on CaM [6] it was 3.84; at S100B [4] it was 3.85.

Usually pKd stands for −log10 of the Kd, conventionally taken in molar units.

(Values after article PMC8162404, “Proteomimetic surface fragments distinguish targets by function” (Chemical Science, 2020).)
